Test results from patent US11673891B2, “Imidazopyrimidine compounds and uses thereof” (Dana-Farber Cancer Institute, Inc., priority 2017, dated 2023).

Tested on: THP1-Lucia cells
Assay: NF-kB-induced luminescence assay in THP1-Lucia cells
Format: cell-based, human
Settings: in comparison to positive control R848, N=4
Method: THP-1 Cell Line and Culture Conditions. The THP1-Lucia™ cell line was obtained from Invivogen (San Diego, Calif.). THP1-Lucia cells, which are human monocytic cells derived from the blood of a child with leukemia, contain an NF-kB-inducible Luc reporter construct. This allows NF-kB activation to be measured by quantifying the luminescence from the secreted luciferase enzyme. THP1-Lucia cells were cultured in RPMI 1640 supplemented with 10% non-heat inactivated fetal bovine serum (FBS), 10 mM HEPES, 1.0 mM sodium pyruvate, 50 ug/ml Pen-Strep, and 100 ug/mL Normocin™. Once cultured, the cells were stored in a 37° C. incubator with 5% CO2 and a humidified atmosphere. Cells were passaged every 2-3 days and not allowed to exceed a concentration of 2.0×10^6 cells/ml media.
NF-kB-induced Luminescence Assay. THP1-Lucia cells between passage 15 and 18 and suspended in culture medium were dispensed into 384-well black clear-bottom plates (Corning 3712) at 30,000 cells/30 μl/well using a Combi liquid dispenser. […] Immediately after adding the substrate, the luminescence was read using a PerkinElmer Envision plate reader.

Structure (SMILES): CCC(C(=O)Nc1cc(-c2cn3cccnc3n2)ccc1C)c1ccccc1 (stereo not shown) [Compound 37]
- NF-κB-driven expression of luciferase in THP1 cells (in words): does not substantially activate THP1 cells
